These are literature values, as cited in patent publication US6462083B1, “Suppository base” (priority 2001, dated 2002).

This data set deals with blood flow to the site of administration. To be noted: laser Doppler imaging; no species, dose or data printed.

Consider `CCCCCCCC/C=C\CCCCCCCCCCCC(=O)O` [Erucic acid, (Z)-13-Docosenoic acid], for which the “blood flow to the site of administration” value is given as “enhance blood flow to the site of administration”.
